TGI data for 13 compounds are collected here from PubChem BioAssay (NCI).

Holding throughout (test): NCI tumour cell line growth inhibition, 48 h
Assay [1] has as its system DMS 273 small cell lung.
The subject of assay [2] is LOX IMVI melanoma.
The subject of assay [3] is LXFL 529 NSCLC.
Assay [4] has as its system M19-MEL melanoma.
Assay [5] has as its system 786-0 renal.
Assay [6] concerns UO-31 renal.
Assay [7] has as its system DMS 114 small cell lung.
For assay [8], the system named is DLD-1 colon.
Assay [9] has as its system SNB-78 CNS.
In assay [10] the test system is OVCAR-8 ovarian.
Assay [11] relates to SK-MEL-2 melanoma.
Assay [12] deals with KM20L2 colon.
Assay [13] deals with SR leukemia.
Assay [14] relates to MDA-N.
Assay [15] has as its system DU-145 prostate.
Assay [16] concerns NCI/ADR-RES ovarian.

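Compound exposure: 48 hours, 5 concentrations, 96-well plates. Definition used: TGI = concentration required for complete inhibition of growth.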

As to `O=C1SC(c2ccccc2)(c2ccccc2)c2ccccc21`, the TGI in assay [1], in [2], in assay [3], in [4], in assay [5] and in assay [6] was above 100 µM throughout. The TGI in assay [7] was 94.4 µM; in assay [8], above 100 µM; in [9], above 100 µM; in assay [10], above 100 µM; in assay [11], above 100 µM; in assay [12] it was above 100 µM.

Turning to `CC(=O)[O-].CC(=O)[O-].O=C(N/N=C/c1cc(Cl)cc(Cl)c1[OH2+])c1ccncc1.[Zn+2]`, the TGI in assay [2], in assay [5], in assay [13], in assay [6], in assay [10] and in assay [12] was above 100 µM throughout.

In the case of `O=NNc1cnccn1`, the TGI in [1] is above 1250 µM; in assay [2], above 1250 µM; in assay [4], above 1250 µM; in assay [5], above 1250 µM; in assay [13], above 1110 µM; in assay [14] it was above 1250 µM. Besides, the TGI in assay [6], in assay [7], in assay [8], in [9], in assay [10] and in assay [15] was above 1250 µM throughout. In addition, the TGI in assay [11], in assay [16] and in assay [12] was above 1250 µM throughout.

For `Cc1ccc(NC(=O)C(=O)C2NC(=S)NC2=O)c([N+](=O)[O-])c1` (centres undefined), the TGI in assay [1], in assay [2], in [3], in [4], in assay [5] and in assay [13] was above 100 µM in each case. The TGI in assay [6], in assay [7], in assay [8], in [9], in assay [10] and in assay [11] was above 100 µM throughout. The compound also showed a TGI in assay [12] above 100 µM.

In the case of `Cc1ccc(S(=O)(=O)N/N=C/c2oc(-c3ccccc3Cl)c(-c3ccccc3Cl)c2[N+](=O)[O-])cc1`, the TGI amounted to 65 µM in [4]; 72 µM in assay [5]; 64.6 µM in assay [13]; 36 µM in assay [6]; 76.7 µM in [7]; 47.9 µM in [8]. Also, the TGI is above 100 µM in assay [10], 76.9 µM in assay [11] and 37.9 µM in [12].

With `C[N+](C)(C)Cc1c(CC#N)[nH]c2ccccc12`, the TGI in assay [1], in assay [2], in assay [3], in assay [4], in assay [5] and in assay [13] was above 100 µM in each case. Also, the TGI in [6], in assay [7], in assay [8], in assay [10], in assay [11] and in [12] was above 100 µM each time.

Consider `O=c1[nH]c(=O)n(C2CC(O)C(CO)O2)cc1C#Cc1cc(C(F)(F)F)cc(C(F)(F)F)c1` (centres undefined), for which the TGI was above 93.6 µM in assay [1]; above 45.9 µM in [2]; above 100 µM in assay [3]; above 74 µM in assay [4]; above 100 µM in assay [5]; above 100 µM in assay [13]. Moreover, the TGI in [6], in [7], in [8], in [9], in [10] and in [11] was above 100 µM each time. The compound also gave a TGI in assay [12] above 100 µM.

Consider `CCCN1CN(c2ccccc2)C2(CCN(CCCC(=O)c3ccc(F)cc3)CC2)C1=O`, for which the TGI in assay [2] was found to be 17.1 µM; in [5] it was 17.3 µM; in [13], 41.4 µM; in [14], 23 µM; in [6], 30.2 µM; in assay [10], 32.6 µM. Also, the TGI in [15] came out at 11.1 µM; in assay [11], 25 µM; in [16], 17.6 µM.

For `CC(C)/C(Cl)=N\OC(=O)Nc1ccc(F)c([N+](=O)[O-])c1`, the TGI in assay [2] is 10.7 µM; in [5] it was 7.87 µM; in [13], 26.3 µM; in assay [14] it was 29.4 µM; in [6], 17.9 µM; in assay [10], 10.9 µM. In addition, the TGI in assay [15] came out at 32.8 µM; in assay [11], 29.9 µM; in assay [16] it was 35.2 µM.

Regarding `Cc1nc(N)c(N2CCN(Cc3ccccc3)CC2)c(=O)[nH]1`, the TGI in [2], in assay [5], in [13], in assay [14], in assay [6] and in assay [10] was above 100 µM each time. Moreover, the TGI in assay [15], in assay [11] and in [16] was above 100 µM throughout.

As for `COc1cc(C=Nc2ccc(S(N)(=O)=O)cc2)cc(OC)c1`, the TGI in [2], in [5], in assay [13], in assay [14], in assay [6] and in [10] was above 50 µM in each case. In addition, the TGI in assay [15], in [11] and in [16] was above 50 µM in each case.

Consider `O=C(O)CSc1nnc(CCCCCCCCc2nnc(SCC(=O)O)o2)o1`, for which the TGI in [2], in assay [5], in [13], in [14], in [6] and in assay [10] was above 100 µM each time. Besides, the TGI in [15], in assay [11] and in [16] was above 100 µM each time.

With `COCC(=O)OC1CCn2c1nc1c2C(=O)C(C)=C(NC(C)=O)C1=N` (centres undefined), the TGI is 6.04 µM in assay [2]; 9.3 µM in [5]; 7.52 µM in assay [13]; 3.23 µM in assay [14]; 24 µM in assay [6]; 7.19 µM in assay [10]. For the same compound, the TGI stood at 36.7 µM in assay [15], 6.09 µM in assay [11] and 17.6 µM in assay [16].
